This is an account of results in patent publication US20220017486A1, “DOCK1-INHIBITING COMPOUND AND USE THEREOF” (KYUSHU UNIVERSITY, NATIONAL UNIVERSITY CORPORATION, priority 2018, published 2022).

One experiment deals with T1, DOCK1 (DHR-2 domain) (Homo sapiens, UniProt Q14185).
T1 construct: polypeptide fragments corresponding to the DHR-2 domain of DOCK1 or DOCK2 from mice and humans; Histidine-SUMO (N); made in house; host or cells: E. coli Arctic express (DE3)
T1 sequence (Q14185 1207-1617 limits assumed): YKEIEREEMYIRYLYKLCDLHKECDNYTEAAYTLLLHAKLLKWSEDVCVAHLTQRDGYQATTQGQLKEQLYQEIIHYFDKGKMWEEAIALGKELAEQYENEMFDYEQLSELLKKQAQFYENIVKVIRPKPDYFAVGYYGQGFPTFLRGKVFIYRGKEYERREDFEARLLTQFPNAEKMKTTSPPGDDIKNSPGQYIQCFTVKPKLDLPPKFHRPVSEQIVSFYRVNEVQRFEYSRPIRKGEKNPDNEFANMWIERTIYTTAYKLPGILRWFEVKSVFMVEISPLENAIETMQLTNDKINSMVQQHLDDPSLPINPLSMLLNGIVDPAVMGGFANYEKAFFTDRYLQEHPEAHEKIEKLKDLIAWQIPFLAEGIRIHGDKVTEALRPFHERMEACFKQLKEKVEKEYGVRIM
As to the kind of experiment: In vitro GEF assay: Rac activation by DOCK1 DHR-2 domain. It is filed as biochemical, mice and humans. The conditions noted are these: in words. The essentials: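 Human/mouse His-SUMO DHR-2 fragment preincubated 20 min at RT with compound (1% DMSO) in MES buffer pH 7.0 with 20 μM GDP, then added to GDP-loaded GST-Rac (15 μM) plus 3.6 μM Bodipy-FL-GTP at 30° C. Initial velocity (0–10 s fluorescence slope, ex 488/em 514 nm) vs DMSO control gave IC50.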

For experiment [1], the system named is CCL21-stimulated T cells (mouse spleen cells). As to the kind of experiment: T lymphocyte migration towards CCL21 (Transwell). It is filed as cell-based. The following applies: in words, 2-hour incubation. On the procedure:
In view of the above, the effect of RT-22 (Production Example 1A), which serves as a representative of the compounds of the present invention, on the lymphocyte migration was studied. Specifically, mouse spleen cells (1×10^7 cells/mL) were first precultured at 37° C. for 1 hour in 0.5 mass % BSA-containing RPMI-1640 (Transwell medium), to which DMSO alone or DMSO in which a predetermined concentration of each test compound was dissolved was added. Subsequently, 500 μL of Transwell medium containing 300 ng/mL of CCL21 and DMSO in which a predetermined concentration of each test compound was dissolved was added to a 24-well plate. Then, Transwell inserts (Corning, pore size: 5 μm) were placed in the wells, into which the precultured mouse spleen cells were loaded at 1×10^6 cells/100 μL.
After 2-hour incubation at 37° C., the cells that migrated to the lower chamber were collected and stained with PE-labeled anti-Thy1.2 antibody (53-2-1, BD Pharmingen) and APC-labeled anti-B220 antibody (RA-6B2, eBioscience). The percentage (%) of the migrated cells was calculated by dividing the number of Thy1.2^+ cells (T cells) in the lower chamber by the number of Thy1.2^+ cells (T cells) placed into the Transwell inserts.

Regarding `COC(=O)c1cc(S(=O)(=O)N2CCCC2)cn1CC(=O)c1ccc(-c2cccc(C(F)(F)F)c2)cc1` [RT-22, methyl 1-(2-oxo-2-(3′-(trifluoromethyl)-[1,1′-biphenyl]-4-yl)ethyl)-4-(pyrrolidin-1-yl-sulfonyl)-1H-pyrrole-2-carboxylate], at DOCK1 (DHR-2 domain) (GEF assay), the “DOCK1-inhibiting activity compared with TBOPP” value is “higher than those of TBOPP” and the “selective inhibitory activity against DOCK1 compared to TBOPP” value was “higher than those of TBOPP”. The “selective inhibitory activity against DOCK1 versus DOCK2” value on DOCK1 (DHR-2 domain) (GEF assay DOCK1 vs DOCK2 DHR-2 domain) is reported as “higher selective inhibitory activity against DOCK1 than against DOCK2”. In experiment [1], the “migration of CCL21-stimulated T cells” value is reported as “no effect”.
